Data taken from patent US12605407B2, “Methods to induce terminal differentiation in stem cells by interfering with DNA replication, methods of inducing pancreatic differentiation, and differentiated cells obtained thereof” (priority 2018, dated 2026).

What was measured:
pancreatic progenitors = assay: Beta cell differentiation from human pluripotent stem cells, flow cytometry of C-peptide and NKX6.1 positive cells; type: cell-based; details: for effectiveness to induce differentiation of pancreatic progenitors to C-peptide positive cells, comparison within panel: day 27; for percentage / number of C-peptide positive cells compared to control: end of differentiation on day 27, compounds added day 15 to day 27
Experimental: Beta cells differentiated from human pluripotent stem cell lines as described in Example 2 (Sui et al., 2018b). Indicated compounds that function as cell cycle inhibitors were added individually from day 15 to day 27 with concentration listed below:
The DNA replication inhibitors used in this study: 0.1 μM, 0.5 μM and 1 μM Aphidicolin (A0781, Sigma-Aldrich); 2.5 μM Cisplatin (232120, EMD Millipore); 100 μM Ciprofloxacin (S2027, Selleck Chemicals); 10 μM Pyridostatin (S7444, Selleck Chemicals); 10 μM E2F Inhibitor (324461, EMD Millipore); 0.05 μM A485 (6387, Tocris); 2 μM RL5a (SML2187, Sigma-Aldrich); and 2 μM Etoposide (E55500, Research Products International). Indicated compounds were added individually from day 15 to day 27 with indicated concentration.
(§1) The beta cell clusters were dissociated using TrypLE™ Express into single cells. Cells were fixed with 4% PFA for 10 min and followed by permeabilization at −20° C. with cold methanol for 10 min. Primary antibodies were added at a dilution of 1:100 in autoMACs Rinsing Solution (Cat. No. 130-091-222, Miltenyi Biotec) containing 0.5% BSA at 4° C. for 1 hour. Secondary antibodies were added at a dilution of 1:500 at room temperature for 1 hour. The cells were filtered with BD Falcon 12×75 mm tube with cell strainer cap (Cat. No. 352235, BD) and subsequently analyzed by flow cytometer. Data were analyzed using Flowjo software. Negative controls were performed by only adding secondary antibodies.
Aphidicolin (APH), a DNA polymerase inhibitor, was used to inhibit DNA replication (Koundrioukoff et al., 2013). […] The insulin expressing cells were evenly distributed in the islet-like clusters with high percentage indicated by the expression of GFP, whereas some parts of the clusters in control remained GFP negative (FIG. 1D).

[1] = tested on: stem cell derived beta cells; assay: Stability of beta cell identity in long-term culture after removal of compound at day 27; type: cell-based, human; details: additional 30 days of culture (day 60)
Experimental: as §1
With APH, a high proportion of cells in the islet-like clusters were positive for C-peptide and NKX6.1, a transcription factor for maintaining the beta cell identity and functional maturation (Schaffer et al., 2013). […] Beta cells were cultured for additional 7 days until about day 34 and 30 days until about day 60 upon removal of these compounds at day 27. […] In contrast, in APH treated cells, there was no decrease in C-peptide or NKX6.1 on day 34 (FIG. 5A). […] After further culturing of the cells for extra 30 days, very few of cells in control group remained GFP expression and were positive for C-peptide.
The ability of other DNA replication inhibitors to stabilize the beta cell identity was investigated. The expressions of GFP were maintained after releasing cells from these inhibitors for 7 days until day 34. With additional 30 days of culture, the expressions of GFP were reduced in all conditions at certain levels, but the cells treated with Cis and Eto expressed higher GFP than the cells treated with APH compared to the other conditions (FIG. 5E, FIG. 5F).

Molecule | effectiveness to induce differentiation of pancreatic progenitors to C-peptide positive cells, comparison within panel (pancreatic progenitors) | expressions of GFP (insulin) [1] | percentage / number of C-peptide positive cells compared to control (pancreatic progenitors)
O=C1NC(=O)c2c1c1c3ccccc3[nH]c1c1[nH]c3cc(Br)ccc3c21 [CDK4] | less effective |  | 
COc1cc([C@@H]2c3cc4c(cc3[C@@H](O[C@@H]3O[C@@H]5CO[C@@H](C)O[C@H]5[C@H](O)[C@H]3O)[C@H]3COC(=O)[C@H]23)OCO4)cc(OC)c1O [Etoposide] | most effective | higher GFP | 
CNC(=O)Nc1ccc2c(c1)CC[C@@]21OC(=O)N(CC(=O)N(Cc2ccc(F)cc2)[C@@H](C)C(F)(F)F)C1=O [P300 inhibitor] |  |  | no significant increase
N.N.[Cl][Pt][Cl] [cisplatin, Cisplatin] | most effective | higher GFP | 
RL5a | less effective |  | failed to increase
